Test results taken from patent US7786141B2 (Vertex Pharmaceuticals Incorporated, priority 2004, dated 2010).
Read-outs that look alike come from different tables or passages of the source.

How the values were obtained:
M4 muscarinic receptor = target: T1, M4 muscarinic receptor (Homo sapiens, UniProt P08173); experiment: Functional mobilization of intracellular calcium (FLIPR) in M4-CHO cells; assay type: cell-based
T1 construct: expressed in transfected cells; host or cells: CHO (M4-CHO)
T1 sequence (P08173 1-479): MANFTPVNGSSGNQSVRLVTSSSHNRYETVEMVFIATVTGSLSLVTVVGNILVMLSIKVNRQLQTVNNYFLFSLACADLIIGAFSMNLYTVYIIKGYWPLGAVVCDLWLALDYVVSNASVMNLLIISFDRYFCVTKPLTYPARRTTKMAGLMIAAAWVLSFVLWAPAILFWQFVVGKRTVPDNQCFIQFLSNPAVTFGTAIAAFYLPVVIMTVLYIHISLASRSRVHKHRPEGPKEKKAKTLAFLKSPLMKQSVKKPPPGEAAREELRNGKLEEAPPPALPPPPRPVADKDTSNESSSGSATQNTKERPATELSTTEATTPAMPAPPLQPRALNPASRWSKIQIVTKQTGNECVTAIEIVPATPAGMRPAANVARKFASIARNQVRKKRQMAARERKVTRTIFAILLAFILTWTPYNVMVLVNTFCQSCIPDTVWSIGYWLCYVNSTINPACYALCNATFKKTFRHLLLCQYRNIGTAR
Procedure, shortened: (§1)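 Measured via Fluo-3 fluorescence on a FLIPR, CHO cells with either muscarinic subtype received compound in 0.5% DMSO. Antagonism was assessed after 15 min pre-incubation followed by carbachol at each subtype's EC80; agonism from compound addition alone.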

M1 muscarinic receptor = target: T2, M1 muscarinic receptor (Homo sapiens, UniProt P11229); experiment: Functional mobilization of intracellular calcium (FLIPR) in M1-CHO cells; assay type: cell-based
T2 construct: expressed in transfected cells; host or cells: CHO (M1-CHO)
T2 sequence (P11229 1-460): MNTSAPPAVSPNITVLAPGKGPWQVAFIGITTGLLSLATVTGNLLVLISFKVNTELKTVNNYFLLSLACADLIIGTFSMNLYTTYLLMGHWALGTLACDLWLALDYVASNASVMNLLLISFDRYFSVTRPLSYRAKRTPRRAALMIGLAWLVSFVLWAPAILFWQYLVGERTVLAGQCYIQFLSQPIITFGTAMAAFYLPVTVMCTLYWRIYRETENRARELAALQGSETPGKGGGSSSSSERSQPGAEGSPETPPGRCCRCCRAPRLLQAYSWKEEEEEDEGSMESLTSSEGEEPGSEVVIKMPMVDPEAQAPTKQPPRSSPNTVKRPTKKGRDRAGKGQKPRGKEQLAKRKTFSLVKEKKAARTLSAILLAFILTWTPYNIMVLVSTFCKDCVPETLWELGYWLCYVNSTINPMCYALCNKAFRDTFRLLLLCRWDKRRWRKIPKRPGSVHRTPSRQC
Procedure, shortened: as §1

[1] = Table 4, 100% efficacy is the maximum response obtained with the Carbachol control
[2] = Table 4, M4 receptor, calcium mobilization (FLIPR)
[3] = Table 4, M1 receptor, calcium mobilization (FLIPR)
[4] = Table 4, modulating M4 receptor
[5] = Table 4, modulating M1 receptor
[6] = M4 receptor, calcium mobilization
[7] = M4 receptor, calcium mobilization, read-out: M4 Efficacy
[8] = M1 receptor, calcium mobilization
[9] = M1 receptor, calcium mobilization, read-out: M1 Efficacy
[10] = M4-CHO cells, calcium mobilization (FLIPR)
[11] = M4-CHO cells, calcium mobilization (FLIPR), read-out: M4 Efficacy
[12] = M1-CHO cells, calcium mobilization (FLIPR)
[13] = M1-CHO cells, calcium mobilization (FLIPR), read-out: M1 Efficacy
[14] = 100% efficacy is the maximum response obtained with the Carbachol control, Table 5

Row | Compound | Emax (M4 muscarinic receptor; [1]) | M4 Activity (M4 muscarinic receptor; [2]) | Emax (M1 muscarinic receptor; [1]) | M1 Activity (M1 muscarinic receptor; [3]) | M4 Activity (M4 muscarinic receptor; [6]) | M1 Activity (M1 muscarinic receptor; [8]) | also measured
1 | CCOC(=O)N1CCC(N2CCC3(CC2)CN(c2ccccc2F)c2ccc(F)cc23)CC1 [compound 991] | 25 to 100% | xxx (activity was measured to be less than 2.0 μM) | 25 to 100% | xxx (activity was measured to be less than 2.0 μM) | – | – | –
2 | C#CCOC(=O)N1CC[C@H](CN2CCC3(CC2)CN(C(=O)N(C)C)c2ccc(F)cc23)C1 [compound 443] | > 100% | – | > 100% | – | – | – | M4 Activity (M4 muscarinic receptor; [4]): xxx (activity was measured to be less than 2.0 μM); M1 Activity (M1 muscarinic receptor; [5]): xxx (activity was measured to be less than 2.0 μM)
3 | CC(=O)N[C@H]1CC2(CCN(C3CCCCC3)CC2)c2ccccc21 [compound 196] | – | – | – | – | x (activity was measured to be greater than 1.0 μM) | xxx (activity was measured to be less than 0.1 μM) | Emax (M4 muscarinic receptor; [7]): < 65%; Emax (M1 muscarinic receptor; [9]): 65 to 85%
4 | COc1ccc(OC(=O)N2C3CCC2CC(N2CCC4(CC2)COc2ccc(F)cc24)C3)cc1 (centres unmarked) [compound 100] | – | – | – | – | xx (activity was measured to be between 0.1 μM and 1.0 μM) | xxx (activity was measured to be less than 0.1 μM) | Emax (M4 muscarinic receptor; [7]): 65 to 85%; Emax (M1 muscarinic receptor; [9]): 65 to 85%
5 | CC(=O)N1CC2(CCN(C3CCN(C(=O)O[C@H]4CCOC4)CC3)CC2)c2ccccc21 [compound 824] | < 25% | x (activity was measured to be greater than 5.0 μM) | 25 to 100% | x (activity was measured to be greater than 5.0 μM) | – | – | –
6 | CN(C)C(=O)N1CC2(CCN(C3CCN(c4ccccn4)CC3)CC2)c2cc(F)ccc21 [compound 720] | 25 to 100% | – | 25 to 100% | – | – | – | M4 Activity (M4 muscarinic receptor; [4]): xxx (activity was measured to be less than 2.0 μM); M1 Activity (M1 muscarinic receptor; [5]): xx (activity was measured to be between 2.0 μM and 5.0 μM)
7 | CCOC(=O)N1CCC(N2CCC3(CCCc4ccccc43)CC2)CC1 [compound 591] | 25 to 100% | – | > 100% | – | – | – | M4 Activity (M4 muscarinic receptor; [4]): xxx (activity was measured to be less than 2.0 μM); M1 Activity (M1 muscarinic receptor; [5]): xxx (activity was measured to be less than 2.0 μM)
8 | CCO/N=C1\CC2(CCN(CC3CCCCC3)CC2)c2cc(Cl)ccc21 [compound 702] | 25 to 100% | – | 25 to 100% | – | – | – | M4 Activity (M4 muscarinic receptor; [4]): x (activity was measured to be greater than 5.0 μM); M1 Activity (M1 muscarinic receptor; [5]): x (activity was measured to be greater than 5.0 μM)
9 | CCOC(=O)N1C2CCC1CC(N1CCC3(CC1)CN(C(=O)C1CC1)c1ccc(F)cc13)C2 (centres unmarked) [compound 214] | – | – | – | – | x (activity was measured to be greater than 1.0 μM) | x (activity was measured to be greater than 1.0 μM) | Emax (M4 muscarinic receptor; [7]): < 65%; Emax (M1 muscarinic receptor; [9]): < 65%
10 | CC(=O)N1CC2(CCN(C3CCN(C(=O)O[C@@H]4CCOC4)CC3)CC2)c2cc(F)ccc21 [compound 424] | – | – | – | – | – | – | EC50 (M4 muscarinic receptor; [10]): > 1000 nM; Emax (M4 muscarinic receptor; [11]): < 65%; EC50 (M1 muscarinic receptor; [12]): > 1000 nM; Emax (M1 muscarinic receptor; [13]): < 65%
11 | CC(=O)N[C@H]1CCC2(CCN(CC3CCCCC3)CC2)c2ccccc21 [compound 605] | 25 to 100% | – | 25 to 100% | – | – | – | M4 Activity (M4 muscarinic receptor; [4]): xxx (activity was measured to be less than 2.0 μM); M1 Activity (M1 muscarinic receptor; [5]): xxx (activity was measured to be less than 2.0 μM)
12 | CC(=O)N[C@@H]1CCC2(CCN(CC3CCCCC3)CC2)c2ccccc21 [compound 882] | < 25% | x (activity was measured to be greater than 5.0 μM) | < 25% | x (activity was measured to be greater than 5.0 μM) | – | – | –
13 | CN(C)C(=O)N1CC2(CCN(C3CCN(c4cccnc4)CC3)CC2)c2cc(F)ccc21 [compound 1040] | – | – | – | – | – | – | Emax (M4 muscarinic receptor; [14]): 25 to 100%; EC50 (M4 muscarinic receptor; CHO cells expressing M4, calcium mobilization, Table 5): < 2000 nM; Emax (M1 muscarinic receptor; [14]): 25 to 100%; EC50 (M1 muscarinic receptor; CHO cells expressing M1, calcium mobilization, Table 5): < 2000 nM
14 | Fc1ccc2c(c1)C1(CCN(C[C@H]3C[C@H]4C=C[C@H]3C4)CC1)CO2 [compound 376] | – | – | – | – | – | – | EC50 (M4 muscarinic receptor; [10]): > 1000 nM; Emax (M4 muscarinic receptor; [11]): 65 to 85%; EC50 (M1 muscarinic receptor; [12]): < 100 nM; Emax (M1 muscarinic receptor; [13]): 65 to 85%
15 | CC(=O)N1CC2(CCN(C3CCC(C(C)C)CC3)CC2)c2cc(F)ccc21 (centres unmarked) [compound 226] | – | – | – | – | x (activity was measured to be greater than 1.0 μM) | x (activity was measured to be greater than 1.0 μM) | Emax (M4 muscarinic receptor; [7]): < 65%; Emax (M1 muscarinic receptor; [9]): < 65%
16 | CCOC(=O)N1C2CCC1CC(N1CCC3(CC1)CC(=O)c1ccc(Cl)cc13)C2 (centres unmarked) [compound 836] | 25 to 100% | xxx (activity was measured to be less than 2.0 μM) | 25 to 100% | xxx (activity was measured to be less than 2.0 μM) | – | – | –
17 | CC(=O)N[C@H]1CC2(CCN(CC3CCN(C(=O)OC4CCC4)CC3)CC2)c2ccccc21 [compound 818] | < 25% | x (activity was measured to be greater than 5.0 μM) | < 25% | x (activity was measured to be greater than 5.0 μM) | – | – | –
18 | CCCCC(=O)N1CC2(CCN(C3CCN(C(=O)OCC)CC3)CC2)c2cc(F)ccc21 [compound 270] | – | – | – | – | xxx (activity was measured to be less than 0.1 μM) | xxx (activity was measured to be less than 0.1 μM) | Emax (M4 muscarinic receptor; [7]): > 85%; Emax (M1 muscarinic receptor; [9]): 65 to 85%
19 | CCOC(=O)N1CCC(N2CCC3(CC2)CN(C(C)=O)c2ccc(-c4cccc(C)c4)cc23)CC1 [compound 6] | – | – | – | – | xx (activity was measured to be between 0.1 μM and 1.0 μM) | xxx (activity was measured to be less than 0.1 μM) | Emax (M4 muscarinic receptor; [7]): 65 to 85%; Emax (M1 muscarinic receptor; [9]): 65 to 85%
20 | O=C(N[C@H]1CCC2(CCN(CC3CCCCC3)CC2)c2ccccc21)C1CC1 [compound 889] | 25 to 100% | xxx (activity was measured to be less than 2.0 μM) | 25 to 100% | xxx (activity was measured to be less than 2.0 μM) | – | – | –
21 | CN(C)C(=O)N1CC2(CCN(C3CCCN(C(=O)OCC(F)F)CC3)CC2)c2cc(F)ccc21 (centres unmarked) [compound 920] | 25 to 100% | xxx (activity was measured to be less than 2.0 μM) | 25 to 100% | xxx (activity was measured to be less than 2.0 μM) | – | – | –
22 | O=C(O[C@@H]1CCOC1)N1CC2(CCN(C3CC4CCC(C3)N4C(=O)O[C@@H]3CCOC3)CC2)c2cc(F)ccc21 (some centres unmarked) [compound 243] | – | – | – | – | x (activity was measured to be greater than 1.0 μM) | xxx (activity was measured to be less than 0.1 μM) | M4 Efficacy (M4 muscarinic receptor; [6]): xx (efficacy was calculated to be between 85% and 65%); M1 Efficacy (M1 muscarinic receptor; [8]): xx (efficacy was calculated to be between 85% and 65%)
23 | CCOC(=O)N1C2CCC1CC(N1CCC3(CC[C@H](NC(=O)N(C)C)c4ccccc43)CC1)C2 (some centres unmarked) [compound 503] | 25 to 100% | – | 25 to 100% | – | – | – | M4 Activity (M4 muscarinic receptor; [4]): xxx (activity was measured to be less than 2.0 μM); M1 Activity (M1 muscarinic receptor; [5]): xxx (activity was measured to be less than 2.0 μM)
